Laboratory results from PMC8195388, “Heterologous Expression of Cyclodextrin Glycosyltransferase my20 in Escherichia coli and Its Application in 2-O-α-D-Glucopyranosyl-L-Ascorbic Acid Production” (Frontiers in Microbiology, 2021).

Test system: T1, recombinant CGTase MY20 (my20)
T1 construct: codon-optimized my20 gene in pET-24a(+), E. coli BL21(DE3), intracellular, Ni-NTA purified
Assay: AA-2G synthesis, HPLC […] nm, ping-pong fit
Type: biochemical, metagenome: marine microorganisms, Mariana Trench
Conditions: pH 5, 40°C

Row | Structure (SMILES) | KmA (glucosyl acceptor, co-substrate beta-cyclodextrin 0.5-25 g/L) | KmB (glucosyl donor, co-substrate L-ascorbic acid 1-50 g/L)
1 | O=C1O[C@H]([C@@H](O)CO)C(O)=C1O [L-ascorbic acid] | 9.2 ± 0.06 g/L | –
2 | OC[C@H]1O[C@@H]2O[C@H]3[C@H](O)[C@@H](O)[C@@H](O[C@H]4[C@H](O)[C@@H](O)[C@@H](O[C@H]5[C@H](O)[C@@H](O)[C@@H](O[C@H]6[C@H](O)[C@@H](O)[C@@H](O[C@H]7[C@H](O)[C@@H](O)[C@@H](O[C@H]8[C@H](O)[C@@H](O)[C@@H](O[C@H]1[C@H](O)[C@H]2O)O[C@@H]8CO)O[C@@H]7CO)O[C@@H]6CO)O[C@@H]5CO)O[C@@H]4CO)O[C@@H]3CO [β-CD] | – | 6.9 ± 0.04 g/L
